Source: patent publication EP1016405A2, “Arylating medicaments” (Radopath Pharmaceuticals International Limited, priority 1993, dated 1994)
Several values for one entry are separate records, joined by “and”; a condition that tells them apart may be missing. Equal entries are not always repeated. Where two headings read alike, the source gives them in different places.

What was measured:
[1] = system: MAC15A (murine adenocarcinoma colon); assay: Anti-tumour activity against MAC15A ascites tumour, survival T/C%; assay type: in vivo, mice; conditions: for T/C%: mouse, in vivo; for response vs control in vivo at 100 mg/kg: Mus musculus, MAC15A, read-out: T/C%
HIV-1RF = assay: Acute Infection Assay, HIV core antigen ELISA in C8166 cells; assay type: cell-based, human immunodeficiency virus
in vitro = conditions: CC50 (Toxicity)
HIV-1IIIB = assay: Acute infection assay against HIV-1IIIB; assay type: cell-based, human immunodeficiency virus; conditions: for IC50: read-out: IC50 (Antiviral)
B16F1-murine melanoma = conditions: days 1,5, 12 days after sc transplant, corn oil
in vivo = conditions: mouse, ip
[2] = Human immunodeficiency virus 1, C8166, read-out: IC50 (Antiviral)
[3] = Human immunodeficiency virus 1, Table 11.3, Against HIV-IIIB / HIV-1IIIB, single assays, unit inferred
[4] = Human immunodeficiency virus 1, IIIB
[5] = Human immunodeficiency virus 1, C8166, Table 11.4, Against HIV-1RF, single assays, unit inferred, read-out: IC50 (Antiviral)

`Nc1ccc([N+](=O)[O-])cc1[N+](=O)[O-]` [2,4-dinitroaniline] gave a T/C% ([1]; ip) of 100%.

With `O=[N+]([O-])c1ccc(Cl)c([N+](=O)[O-])c1` [Compound E2, 1-chloro-2,4-dinitrobenzene] the “SI (Selectivity Index)” value (HIV-1RF) was 3, the IC50 (HIV-1RF; [2]) was 4 µM and the response vs control in vivo at 100 mg/kg ([1]; ip) was 188%. For the same molecule, the CC50 (in vitro) was 13 µM.

`O=C(O)c1cc([N+](=O)[O-])cc([N+](=O)[O-])c1` [3,5-dinitrobenzoic acid] showed a T/C% ([1]; ip) of 100%.

Work on `Nc1c([N+](=O)[O-])cccc1[N+](=O)[O-]` [2,6-dinitroaniline] yielded a T/C% ([1]; ip) of 214%.

For `O=C(O)c1ccc([N+](=O)[O-])cc1Cl` [Compound C-10, 2-chloro-4-nitrobenzoic acid], the IC50 (HIV-1IIIB; [3]) was greater than 200 µM and the CC50 (in vitro) was greater than 200 µM.

In the case of `O=[N+]([O-])c1cc(Cl)c(Cl)cc1[N+](=O)[O-]` [Compound E3, 1,2-dichloro-4,5-dinitrobenzene], the “SI (Selectivity Index)” value (HIV-1RF) is reported as 1.5, the IC50 (HIV-1RF; read-out: IC50 (Antiviral)) is reported as 4 µM and the T/C% ([1]; ip) is reported as 171%. It also gave a CC50 (in vitro) of 7 µM.

For `O=[N+]([O-])c1cc(Cl)ccc1Cl` [Compound E6, 2,5-dichloronitrobenzene], the “SI (Selectivity Index)” value (HIV-1RF) was 2, the IC50 (HIV-1RF; [2]) was 110 µM and the CC50 (in vitro) was greater than 200 µM.

With `COc1ccc(Cl)c([N+](=O)[O-])c1` [4-chloro-3-nitroanisole] the response vs control in vivo at 100 mg/kg ([1]; ip) was 100%.

“2-glutathionyl-3,5-dinitrobenzenesulfonic acid” gave a T/C% ([1]; ip) of 242%.

Molecule `Nc1c([N+](=O)[O-])cc(Cl)cc1[N+](=O)[O-]` [4-chloro-2,6-dinitroaniline] has a T/C% ([1]; ip) of 87%.

Molecule `COC(=O)c1cc([N+](=O)[O-])cc([N+](=O)[O-])c1Cl` [Compound C8, 2-chloro-3,5-dinitrobenzoic acid methyl ester] has an IC50 (HIV-1IIIB; [4]) of 10 µM and a CC50 (in vitro) of 60 µM.

With `Nc1c(Cl)cc([N+](=O)[O-])cc1[N+](=O)[O-]` [6-chloro-2,4-dinitroaniline] the T/C% ([1]; ip) was 87%.

In the case of `O=[N+]([O-])c1cc(Cl)c(Cl)cc1Cl` [Compound E11, 1,2,4-trichloro-5-nitrobenzene], the IC50 (HIV-1RF; [2]) is reported as greater than 200 µM and the CC50 (in vitro) is reported as greater than 200 µM.

For `O=S(=O)(O)c1cc(Cl)ccc1Cl` [Compound S7, 2,5-dichlorobenzenesulfonic acid], the IC50 (HIV-1RF; [5]) was greater than 200 µM, the response vs control in vivo at 100 mg/kg ([1]; ip) was 212% and the CC50 (in vitro) was greater than 200 µM.

For `O=[N+]([O-])c1cc(S(=O)(=O)O)ccc1Cl` [Compound S4, 4-chloro-3-nitrobenzenesulfonic acid], the IC50 (HIV-1RF; [5]) was greater than 200 µM, the response vs control in vivo at 100 mg/kg ([1]; ip) was 140% and the CC50 (in vitro) was greater than 200 µM.

`O=[N+]([O-])c1cc([N+](=O)[O-])c(Cl)c(S(=O)(=O)O)c1` [Compound S2, 2-chloro-3,5-dinitrobenzenesulfonic acid] showed a TI (HIV-1RF) greater than 8, an IC50 (HIV-1RF; read-out: IC50) of 25 µM and a T/C% ([1]; ip) of 137%. It also gave a CD50 (uninfected cells) greater than 200µm.

With `O=C(O)c1cc([N+](=O)[O-])c(Cl)c([N+](=O)[O-])c1` [Compound C4, 4-chloro-3,5-dinitrobenzoic acid] the TI (HIV-1RF) was 2.33, the “SI (Selectivity Index)” value (HIV-1IIIB) was 2.5 and 2.3 and the “% Tumour Weight Inhibition” value (B16F1-murine melanoma; 50 mg/kg ip) was 10%. The “% Tumour Weight Inhibition” value (B16F1-murine melanoma; 75 mg/kg ip) was 41%, the “% Tumour Weight Inhibition” value (B16F1-murine melanoma; 100 mg/kg ip) was 39% and the CC50 (in vitro) was 100 µM. For the same molecule, the CD50 (uninfected cells) was 70µm.

With `O=[N+]([O-])c1cc(Cl)cc(Cl)c1` [Compound E8, 3,5-dichloronitrobenzene] the “SI (Selectivity Index)” value (HIV-1RF) was 1.5, the IC50 (HIV-1RF; [2]) was 120 µM and the CC50 (uninfected cells) was greater than 200 µM.

With `O=C(O)c1cc([N+](=O)[O-])cc([N+](=O)[O-])c1Cl` [Compound C7, 2-chloro-3,5-dinitrobenzoic acid] the “SI (Selectivity Index)” value (HIV-1IIIB) was 6 and >10, the IC50 (HIV-1IIIB) was 23 µM and the CC50 (in vitro) was 150 µM. The CC50 (uninfected cells) was greater than 200 µM.

Work on `Nc1ccc([N+](=O)[O-])cc1Cl` [2-chloro-4-nitroaniline] yielded a response vs control in vivo at 100 mg/kg ([1]; ip) of 171%.

With `NC(=O)c1cc([N+](=O)[O-])c(N)c([N+](=O)[O-])c1` [4-amino-3,5-dinitrobenzamide] the response vs control in vivo at 100 mg/kg ([1]; ip, 24 h) was 100%.

With `O=[N+]([O-])c1ccc(Cl)cc1[N+](=O)[O-]` [Compound E1, 1-chloro-3,4-dinitrobenzene] the “SI (Selectivity Index)” value (HIV-1RF) was 2.5, the IC50 (HIV-1RF; read-out: IC50 (Antiviral)) was 4 µM and the T/C% ([1]; ip) was 200%. It also gave a CC50 (in vitro) of 10 µM.

Work on `O=C(O)c1ccc(Cl)c(Cl)c1` [Compound C-11, 3,4-dichlorobenzoic acid] yielded an IC50 (HIV-1IIIB; [3]) greater than 200 µM and a CC50 (in vitro) greater than 200 µM.

For `O=[N+]([O-])c1ccc(S(=O)(=O)O)c([N+](=O)[O-])c1` [Compound S8, 2,4-dinitrobenzenesulfonic acid], the IC50 (HIV-1RF; read-out: IC50 (Antiviral)) was 40 µM and 30 µM, the T/C% ([1]; ip) was 171% and the CC50 (in vitro) was 100 µM.

`O=C(O)c1ccc(Cl)c([N+](=O)[O-])c1` [Compound C9, 4-chloro-3-nitrobenzoic acid] gave an IC50 (HIV-1IIIB; [3]) greater than 200 µM and a CC50 (in vitro) greater than 200 µM.

`O=[N+]([O-])c1cc(Cl)cc(Cl)c1[N+](=O)[O-]` [Compound E9, 1,5-dichloro-2,3-dinitrobenzene] gave a response vs control in vivo at 100 mg/kg ([1]; ip) of 386%.

`COC(=O)c1cc([N+](=O)[O-])c(Cl)c([N+](=O)[O-])c1` [Compound C6, 4-chloro-3,5-dinitrobenzoic acid methyl ester] gave an IC50 (HIV-1IIIB; [4]) of 5 µM, an MTD (in vivo) of 2.5 mg/kg and a CC50 (in vitro) of 60 µM.

In the case of `Cc1ccc(S(=O)(=O)O)cc1[N+](=O)[O-]` [3-nitro-4-methylbenzenesulfonic acid], the response vs control in vivo at 100 mg/kg ([1]; ip) is reported as 229%.

Molecule `O=[N+]([O-])c1c(Cl)cc(Cl)c(Cl)c1Cl` [Compound E13, 2,3,4,6-tetrachloronitrobenzene] has an IC50 (HIV-1RF; [2]) greater than 200 µM and a CC50 (in vitro) of 80 µM.

With `O=[N+]([O-])c1cccc(Cl)c1Cl` [Compound E4, 2,3-dichloronitrobenzene] the “SI (Selectivity Index)” value (HIV-1RF) was 1.5, the IC50 (HIV-1RF; [2]) was 80 µM and the CC50 (uninfected cells) was greater than 200 µM.

Work on `O=S(=O)(O)c1ccc(Cl)cc1` [Compound S5, 4-chlorobenzenesulfonic acid] yielded an IC50 (HIV-1RF; [5]) greater than 200 µM, a response vs control in vivo at 100 mg/kg ([1]; median survival, test vs solvent control, 100 mg kg^-1 ip per day, schedule days 1,2,3,4,5) of 443% and a CC50 (in vitro) greater than 200 µM.

For 4-glutathionyl-3,5-dinitrobenzene, the T/C% ([1]; ip) was 113%.

`O=[N+]([O-])c1ccc(Cl)c(Cl)c1` [Compound E7, 3,4-dichloronitrobenzene] showed an IC50 (HIV-1RF; [2]) greater than 200 µM and a CC50 (uninfected cells) greater than 200 µM.

Molecule `O=[N+]([O-])c1c(Cl)c(Cl)c(Cl)c(Cl)c1Cl` [Compound E14, pentachloronitrobenzene] has an IC50 (HIV-1RF; [2]) greater than 200 µM and a CC50 (in vitro) greater than 200 µM.

With `O=C(O)c1ccc([N+](=O)[O-])cc1[N+](=O)[O-]` [2,4-dinitrobenzoic acid] the T/C% ([1]; ip) was 100%.

`O=[N+]([O-])c1ccc(Cl)c(Cl)c1Cl` [Compound E10, 1,2,3-trichloro-4-nitrobenzene] showed an IC50 (HIV-1RF; [2]) greater than 200 µM and a CC50 (in vitro) of 90 µM.

For `O=[N+]([O-])c1ccc(Cl)cc1Cl` [Compound E5, 2,4-dichloronitrobenzene], the “SI (Selectivity Index)” value (HIV-1RF) was 1, the IC50 (HIV-1RF; [2]) was 180 µM and the CC50 (uninfected cells) was greater than 200 µM.

`Nc1c([N+](=O)[O-])cc(S(=O)(=O)O)cc1[N+](=O)[O-]` [Compound S3, 4-amino-3,5-dinitrobenzenesulfonic acid] gave a TI (HIV-1RF) of 5, an IC50 (HIV-1RF; read-out: IC50) of 20 µM and a T/C% ([1]; ip) of 286%. For the same molecule, the CD50 (uninfected cells) was 100µm.

`O=C(O)c1cc(Cl)ccc1Cl` [Compound C-12, 2,5-dichlorobenzoic acid] gave a response vs control in vivo at 100 mg/kg ([1]; ip) of 171% and a CC50 (in vitro) greater than 200 µM.
